Measurements from patent publication US10702607B2, “Abuse-deterrent pharmaceutical compositions” (priority 2016, dated 2020).

Assays:
[1] = system: laccase; assay: Laccase mediator system (LMS) with oxycodone: oxygen concentration measurement; format: biochemical; settings: mediator 2 mM, 10 units laccase ml^-1, 1000 mgL^-1 oxycodone
Method: During the reaction oxygen acts as electron acceptor and is reduced to water by laccases while the mediators are oxidized. The concentration of oxygen was measured as described above. Oxygen is consumed until the mediator is fully oxidized. […] The second step of the reaction is initiated by addition of the target substrate, which is consequently oxidized by the mediators.
In the present experiments the final reaction mixtures contained 0.2 to 6 mM mediator, 1-10 units of laccase per ml and 100-3000 mg L^−1 opioid.
The different mediators were used at concentrations of 2 mM with 10 units laccase ml^−1 and 1000 mgL^−1 oxycodone.

[2] = system: laccase; assay: Laccase mediator system (LMS) with oxycodone: HPLC-MS/TOF measurement; settings: mediator 2 mM
[3] = target: T1, pepsin (Sus scrofa, UniProt P00791); assay: Pepsin digestion assay in simulated gastric fluid (SGF) with SDS-PAGE analysis; format: in vitro ADME; settings: 37° C.
T1 construct: purchased Sigma-Aldrich (US) P7000
T1 sequence (P00791 60-385): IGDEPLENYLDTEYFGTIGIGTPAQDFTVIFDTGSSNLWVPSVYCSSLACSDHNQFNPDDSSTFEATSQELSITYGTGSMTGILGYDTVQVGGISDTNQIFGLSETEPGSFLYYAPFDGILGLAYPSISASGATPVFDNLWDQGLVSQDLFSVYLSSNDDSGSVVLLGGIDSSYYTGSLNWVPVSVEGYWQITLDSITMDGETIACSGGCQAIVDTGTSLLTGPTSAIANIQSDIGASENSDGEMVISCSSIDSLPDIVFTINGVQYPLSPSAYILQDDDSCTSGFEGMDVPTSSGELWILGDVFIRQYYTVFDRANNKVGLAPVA
Method: SGF contains 0.084 M HCl, 0.035 M NaCl, 4000 U of pepsin per reaction mixture and has a pH level of 1.2 according to the United States Pharmacopeia (1995). A ratio of 10000 Units of pepsin activity to 1 mg of test protein was used throughout the assay, which is based on an evaluation of the average activity of pepsin recommended in the United States Pharmacopeia (24th edition, 2000) with some modifications. Pepsin (ref. # P7000) was purchased from Sigma-Aldrich (US). All proteins that were used were dissolved in 50 mM Tris-HCl (pH 9.5) at a concentration of 5 mg mL^−1. The reaction mixture contained 1.52 mL of SGF preheated to 37° C. before the addition of 0.08 mL of protein solution (Thomas et al., 2004). The mixture was placed into a thermomixer at 37° C. and was shaken at 400 rpm. For denaturating SDS-polyacrylamide gel electrophoresis (SDS-PAGE) analysis samples of 160 μl were removed at 0 minutes, 0.5 minutes, and 15 minutes after initiation.
SDS-PAGE was performed to analyze and visually inspect stained protein bands whether the protein band is still intact or fragmented after the digestion assay. […]
Each 160 μl of the digestion samples was quenched by […] of 200 mM NaHCO3 as neutralization step and 56 μl 4× Laemmli (Laemmli 1970) buffer for electrophoresis. Samples were immediately heated up to 99° C. for 10 minutes and analyzed directly or stored at −20° C. […]

Compound | oxygen concentration after the addition of oxycodone (oxidation of oxycodone) [1] | effect of mediator on oxycodone (MS-TOF analysis) [2] | proteolytic degradation ([3]; SGF pH 1.2, pepsin 10000 Units per mg test protein, samples at 0, 0.5, 15 minutes, SDS-PAGE) | protein band on SDS-PAGE after pepsin digestion ([3]; SGF pH 1.2, pepsin)
CCOc1cc(C=O)ccc1O [ethylvanillin] | drop in oxygen concentration | – | – | –
O=C(O)c1cc(O)c(O)c(O)c1 [gallic acid] | no apparent effect | no apparent effect | – | –
COc1cc(C(=O)O)cc(OC)c1O [syringic acid] | drop in oxygen concentration | – | – | –
COc1cc(C=O)ccc1O [vanillin] | drop in oxygen concentration | – | – | –
HRP: horseradish peroxidase (EC 1.11.1.7) | – | – | very susceptible to proteolytic degradation | vanished within seconds
